pIC50: −log10 of the molar value. Active and inactive are the calls of the source. The rule behind the calls is not given here.

The experiment has as its system M. tuberculosis H37Rv growth inhibition with meropenem. Description: dose response, H37Rv, with and without meropenem (AID 434987).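 Note: growth over 7 days at 37 °C before Alamar Blue read on day 9.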
Where [1] appears, read: M. tuberculosis H37Rv growth inhibition, measured here: IC50 without meropenem.
Where [2] appears, read: M. tuberculosis H37Rv growth inhibition, measured here: IC90 without meropenem.
Setting [3] is: measured here: IC90 with meropenem.

Take `COc1cccc(-n2c([S-])c(C(=O)Nc3ccc(S(=O)(=O)N4CCOCC4)cc3)[n+]3cc(C(N)=O)ccc23)c1`: the IC50 – broadly, the concentration needed to halve the response being measured – is > 100 µM (inactive). Moreover, under setting [1], the pIC50 (commonly the negative decadic logarithm of the IC50, by convention in mol/L) was below 4.00. Further, the IC90 (commonly the concentration needed for an effect of 90%) under setting [2] is above 100 µM. The compound further registered an IC90 under setting [3] above 100 µM.

For the compound `Cc1cccnc1NC(=O)c1cc2ccccc2oc1=O`, the IC50 was 46.7 µM (inactive). Besides, the pIC50 under setting [1] was below 4.00. Moreover, the IC90 under setting [2] is above 100 µM. Under setting [3], this compound showed an IC90 above 100 µM.

In the case of `Cc1cccc2nc(COc3ccc4ccccc4c3Br)cn12`, the IC50 was 49 µM (inactive). Under setting [1], this compound showed a pIC50 of 4.32. Under setting [2], this compound displayed an IC90 above 100 µM. Under setting [3], this compound registered an IC90 above 100 µM.

Regarding `c1ccc2nc(-c3nc4ccccc4o3)ccc2c1`, the IC50 is 43.9 µM (inactive). The same compound had a pIC50 under setting [1] below 4.00. The IC90 under setting [2] was above 100 µM. Moreover, the IC90 under setting [3] is above 50 µM.

On to `C/C(=N\NC(N)=S)c1ccc(-n2ccnc2)cc1`, for which the pIC50 was 5.18. Further, under setting [1], the negative-log IC50 (pIC50) was below 4.00. Under setting [2], this compound gave an IC90 above 100 µM. The compound also showed an IC90 under setting [3] above 100 µM.

As to `CCOC(=O)c1cc(-c2ccc(C)cc2)n(CCC(=O)N2CCN(c3ccccn3)CC2)c1C`, the IC50 is 69.5 µM (inactive). In addition, the pIC50 under setting [1] was 4.05. Moreover, under setting [2], the IC90 was above 100 µM. Further, the IC90 under setting [3] is above 100 µM.

Take `CC1CC1C(=O)Nc1nc(-c2cccs2)c(-c2cccs2)s1` (stereo not drawn): the IC50 was 94.3 µM (inactive). Under setting [1], this compound gave a negative logarithm of the IC50 (pIC50) below 4.00. Under setting [2], the IC90 is above 100 µM. Besides, the IC90 under setting [3] is above 100 µM.

Take `Cc1ccc(Cn2c(C(CO)Nc3nc(-c4ccc(Cl)c([N+](=O)[O-])c4)cs3)nc3ccccc32)cc1` (stereo not drawn): the IC50 is > 100 µM (inactive). The compound further gave a pIC50 under setting [1] below 4.00. Under setting [2], the concentration for an effect of 90% (IC90) was above 100 µM. Under setting [3], this compound registered a 90% effect concentration (IC90) above 100 µM.

`CC12CCC(C/C1=N/NC(=O)Nc1ccccc1)C2(C)C` (stereo not drawn): the pIC50 is 4.83. The compound further had a pIC50 under setting [1] below 4.00. Moreover, under setting [2], the IC90 was above 100 µM. The compound further yielded an IC90 under setting [3] above 50 µM.

As to `O=C(NCc1cccs1)c1cc(-c2ccccc2)nc2ccccc12`, the IC50 is > 100 µM (inactive). Further, the negative-log IC50 (pIC50) under setting [1] is below 4.00. This compound also had an IC90 under setting [2] above 100 µM. Besides, under setting [3], the IC90 is above 100 µM.

For `CCCCOc1ccccc1NC(=O)c1ccco1`, the IC50 was > 100 µM (inactive). Under setting [1], the pIC50 was below 4.00. The compound further gave an IC90 under setting [2] above 100 µM. The IC90 under setting [3] was above 100 µM.

As to `O=C(CSc1nnc(-c2cnccn2)n1Cc1ccco1)Nc1ccc(Br)cc1`, the IC50 is 44.2 µM (inactive). The same compound showed a pIC50 under setting [1] below 4.00. For the same compound, the IC90 under setting [2] is above 100 µM. This compound had an IC90 under setting [3] above 100 µM.

As to `COc1ccccc1CNC(=O)c1cc2c(C)nn(Cc3ccc(F)cc3)c2s1`, the IC50 was > 100 µM (inactive). Under setting [1], this compound showed a pIC50 below 4.00. Under setting [2], this compound came in with an IC90 above 100 µM. This compound returned an IC90 under setting [3] above 100 µM.

As to `CCOC(=O)C1CCCN(c2ccc(NC(=O)c3snc4c(=O)[nH]cnc34)cc2)C1` (stereo not drawn), the negative logarithm of the IC50 (pIC50) was 4.89. Moreover, the pIC50 under setting [1] is 4.23. Also, the IC90 under setting [2] was above 100 µM. This compound also came in with an IC90 under setting [3] above 100 µM.

With `COc1ccc(-c2cc3cc(OC)c(OC)cc3c(C)n2)cc1`, the IC50 is > 100 µM (inactive). Further, the pIC50 under setting [1] was below 4.00. The same compound had a concentration for an effect of 90% (IC90) under setting [2] above 100 µM. The IC90 under setting [3] was above 100 µM.

In the case of `O=C(O)CCCN1C(=O)/C(=C\c2ccc(-c3nc4ccccc4s3)o2)SC1=S`, the pIC50 was 4.61. Further, the pIC50 under setting [1] was 4.22. This compound yielded an IC90 under setting [2] above 100 µM. The same compound came in with an IC90 under setting [3] above 100 µM.

`CSc1nnc(-c2ccc(NC(N)=S)cc2)o1`: the pIC50 was 4.91. For the same compound, the negative-log IC50 (pIC50) under setting [1] is below 4.00. Under setting [2], this compound returned a concentration for an effect of 90% (IC90) above 100 µM. The IC90 under setting [3] is above 100 µM.

`C/C(CC(=O)NCc1ccco1)=N\NC(=O)CC#N`: the pIC50 was 5.33. This compound showed a pIC50 under setting [1] of 4.36. For the same compound, under setting [2], the IC90 was above 100 µM. In addition, under setting [3], the IC90 was determined as 17.6 µM.

For the compound `COc1ccc(/C=N\NC(=O)c2sc(N)nc2C)cc1OC`, the IC50 is > 100 µM (inactive). The compound further showed a pIC50 under setting [1] below 4.00. The same compound yielded a 90% effect concentration (IC90) under setting [2] above 100 µM. The same compound gave a 90% effect concentration (IC90) under setting [3] above 100 µM.

As to `COc1ccc(/C=C/C(=O)N(C(C)C)C(C)C)cc1Br`, the negative logarithm of the IC50 (pIC50) was 5.23. The compound also had a pIC50 under setting [1] of 4.03. Under setting [2], this compound returned an IC90 above 100 µM. Also, under setting [3], the 90% effect concentration (IC90) came out at 96.4 µM.

`COCCSc1nc2sc3c(c2c(=O)n1-c1ccccc1)CCN(C)C3`: the IC50 is 38.1 µM (inactive). The pIC50 under setting [1] was 4.38. This compound also yielded an IC90 under setting [2] of 54.3 µM. For the same compound, the IC90 under setting [3] was 53.3 µM.

`COc1ccc(C(=O)Nc2cccc3c2CCCC3)c(OC)c1`: the pIC50 is 4.63. Under setting [1], the pIC50 was below 4.00. Besides, under setting [2], the IC90 is above 100 µM. The IC90 under setting [3] was above 100 µM.

Values taken from PubChem BioAssay AID434987 (Southern Research Specialized Biocontainment Screening …, 2010).
